biological target: 5'-nucleotidase (Homo sapiens, UniProt P21589); assay: In Vitro Inhibitory Activity of Compound to Recombinant Human CD73 Enzyme
Experimental: Human-CD73 (Novoprotein; C446) was diluted with Tris-MgCl2 buffer to form a stock solution (3×), which was placed in a 96-well plate according to 20 μL/well to obtain a final concentration of 0.1 μg/mL. The compound was diluted with Tris-MgCl2 buffer to form a stock solution (3×) of an appropriate concentration gradient, the compound solution was added to the above 96-well plate according to 20 μL/well and uniformly mixed with the Human-CD73 solution, and the mixture was incubated at the room temperature for 30 min. Meanwhile, a positive reference group (without the compound) and a negative reference group (without CD73) were set. AMP (Sigma; A1752-5G) was diluted with Tris-MgCl2 buffer to form a stock solution (3×), which was added to the above 96-well plate according to 20 μL/well to obtain a final concentration of 100 μM, and the mixture was uniformly mixed and incubated at 37° C. for 60 min; ATP (Sigma; A7699-1G) was diluted with Tris-MgCl2 buffer to form a stock solution (7×), which was added to the above 96-well plate according to 10 μL/well to obtain a final concentration of 100 μM, and the mixture was uniformly mixed, incubated for 5 min, and tested by using an ATP-GLO kit (Promega; G7573).

Chain of 5'-nucleotidase (P21589 whole entry): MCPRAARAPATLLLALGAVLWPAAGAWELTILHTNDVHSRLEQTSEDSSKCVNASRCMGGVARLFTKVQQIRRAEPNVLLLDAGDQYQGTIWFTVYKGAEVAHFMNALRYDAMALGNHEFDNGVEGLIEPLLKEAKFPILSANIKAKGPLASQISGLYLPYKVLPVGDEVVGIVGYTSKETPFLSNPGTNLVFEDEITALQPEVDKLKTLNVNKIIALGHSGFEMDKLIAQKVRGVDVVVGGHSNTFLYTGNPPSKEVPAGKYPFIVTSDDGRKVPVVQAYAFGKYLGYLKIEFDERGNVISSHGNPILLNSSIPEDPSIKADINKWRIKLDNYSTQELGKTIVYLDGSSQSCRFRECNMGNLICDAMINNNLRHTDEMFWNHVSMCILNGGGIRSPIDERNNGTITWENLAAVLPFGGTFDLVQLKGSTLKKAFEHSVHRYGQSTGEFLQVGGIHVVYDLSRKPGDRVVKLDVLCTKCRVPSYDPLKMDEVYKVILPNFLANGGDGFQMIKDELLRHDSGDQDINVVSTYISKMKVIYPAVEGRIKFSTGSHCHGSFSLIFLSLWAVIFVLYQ

Row | IC50 | SMILES
1 | 0.0232 µM | O=c1[nH]cc(-c2cc([C@@H]3C[C@H]3C(F)(F)F)c(Cl)nn2)c(=O)[nH]1 (relative stereo) [US20230399314, Compound 2]
2 | 0.00459 µM | O=c1[nH]cc(-c2cc([C@H]3C[C@@H]3CF)c(Cl)nn2)c(=O)[nH]1 [US20230399314, Compound 9]
3 | 0.0116 µM | O=c1[nH]cc(-c2cc([C@H]3C[C@@H]3C(F)(F)F)c(Cl)nn2)c(=O)[nH]1 [US20230399314, Compound 3]

— BindingDB's records for patent US20230399314 (Wuhan Humanwell Innovative Drug Research and Development …, 2023)
